In series [1] the target is T1, recombinant purified human BTK (Homo sapiens, UniProt Q06187).
T1 construct: purchased SignalChem, USA
Kind of series: In vitro BTK kinase assay on ADP Glo platform. Conditions: 2 hr room temperature, read-out: In-vitro BTK inhibitory activity: IC50. It counts as biochemical. Put shortly: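 Recombinant human BTK (3 ng/reaction) with compound dilutions in Tris pH 7.5, MgCl2/MnCl2, BSA, DTT; started with 50 µM ATP (final) and polyGln4Tyr1 substrate, 2 h at room temperature. ADP formed detected by ADP-Glo luminescence; IC50 by nonlinear fit versus uninhibited enzyme as 100%.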
For orientation: ADP-Glo turns the ADP formed in a reaction into a luminescent signal.

Series [2] deals with T2, CYP 1A2 (Homo sapiens, UniProt P05177).
T2 construct: from tissue; host or cells: human liver microsomes
T2 sequence (P05177 1-516): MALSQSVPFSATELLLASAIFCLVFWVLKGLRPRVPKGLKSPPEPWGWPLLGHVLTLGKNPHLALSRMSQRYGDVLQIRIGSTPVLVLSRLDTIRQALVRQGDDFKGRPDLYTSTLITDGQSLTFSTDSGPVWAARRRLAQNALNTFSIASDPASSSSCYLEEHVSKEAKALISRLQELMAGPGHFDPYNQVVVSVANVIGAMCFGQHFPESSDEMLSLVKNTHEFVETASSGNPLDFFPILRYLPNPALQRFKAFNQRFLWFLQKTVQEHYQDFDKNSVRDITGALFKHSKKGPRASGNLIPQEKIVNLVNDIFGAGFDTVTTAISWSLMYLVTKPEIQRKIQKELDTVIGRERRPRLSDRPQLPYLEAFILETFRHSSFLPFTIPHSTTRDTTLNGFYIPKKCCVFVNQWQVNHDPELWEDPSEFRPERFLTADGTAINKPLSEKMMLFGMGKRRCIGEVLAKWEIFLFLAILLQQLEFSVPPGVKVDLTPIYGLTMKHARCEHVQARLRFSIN
Kind of series: CYP inhibition in human liver microsomes, 1A2. Format: in vitro ADME. Conditions: pH 7.4, @ 10 μM concn. The gist of the method: (§1)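 Human liver microsomes in 100 mM phosphate pH 7.4 with CYP-specific probe substrate were incubated with test compound at […] and 10 μM, started with 1 mM NADPH at 37° C. Reactions were stopped with acetonitrile, and marker-reaction metabolites were quantified by LC-MS/MS. Final solvent was ≤0.2%.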
For orientation: Liver microsomes are vesicles of endoplasmic reticulum, rich in cytochrome P450 enzymes.

Series [3] has as its target T3, CYP 2C8 (Homo sapiens, UniProt P10632).
T3 construct: from tissue; host or cells: human liver microsomes
T3 sequence (P10632 1-490): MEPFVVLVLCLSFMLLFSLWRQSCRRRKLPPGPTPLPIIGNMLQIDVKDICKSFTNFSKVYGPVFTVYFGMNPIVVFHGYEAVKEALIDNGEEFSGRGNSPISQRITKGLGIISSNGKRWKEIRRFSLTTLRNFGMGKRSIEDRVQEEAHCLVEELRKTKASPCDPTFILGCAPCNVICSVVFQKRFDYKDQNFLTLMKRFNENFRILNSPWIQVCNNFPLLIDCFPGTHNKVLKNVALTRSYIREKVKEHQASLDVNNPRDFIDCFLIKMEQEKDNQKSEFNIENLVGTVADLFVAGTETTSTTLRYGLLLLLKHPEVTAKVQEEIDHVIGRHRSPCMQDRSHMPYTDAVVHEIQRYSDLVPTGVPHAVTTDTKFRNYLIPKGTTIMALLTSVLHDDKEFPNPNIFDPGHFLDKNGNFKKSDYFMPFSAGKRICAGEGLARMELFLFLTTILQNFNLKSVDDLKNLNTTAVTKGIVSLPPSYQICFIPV
Kind of series: CYP inhibition in human liver microsomes, 2C8. It counts as in vitro ADME. The settings on record: pH 7.4, @ 10 μM concn. Put shortly: as §1

Series [4] concerns the target T4, CYP 2C9 (Homo sapiens, UniProt P11712).
T4 construct: from tissue; host or cells: human liver microsomes
Kind of series: CYP inhibition in human liver microsomes, 2C9. Format: in vitro ADME. Conditions: pH 7.4, @ 10 μM concn. The gist of the method: as §1

Series [5] deals with T5, CYP 2C19 (Homo sapiens, UniProt P33261).
T5 construct: from tissue; host or cells: human liver microsomes
Kind of series: CYP inhibition in human liver microsomes, 2C19. Format: in vitro ADME. The settings on record: pH 7.4, @ 10 μM concn. The gist of the method: as §1

The target in series [6] is T6, CYP 2D6 (Homo sapiens, UniProt P10635).
T6 construct: from tissue; host or cells: human liver microsomes
Kind of series: CYP inhibition in human liver microsomes, 2D6. It counts as in vitro ADME. The settings on record: pH 7.4, @ 10 μM concn. The gist of the method: as §1

Series [7] deals with T7, CYP 3A4 (Homo sapiens, UniProt P08684).
T7 construct: from tissue; host or cells: human liver microsomes
Kind of series: CYP inhibition in human liver microsomes, 3A4. It counts as in vitro ADME. Conditions: pH 7.4, @ 10 μM concn. The gist of the method:
as §1

Among the data in patent US9840509B2, “Heterocyclic compounds” (CADILA HEALTHCARE LIMITED, priority 2014, dated 2017) are IC50 and inhibition values, retold here.

SMILES strings stand for the structures.

A word on the IC50: it is the concentration that gives 50% inhibition. For orientation: inhibition means the drop in the measured response relative to a control, in per cent. A lower inhibition goes with little suppression.

T6 sequence (P10635 whole entry): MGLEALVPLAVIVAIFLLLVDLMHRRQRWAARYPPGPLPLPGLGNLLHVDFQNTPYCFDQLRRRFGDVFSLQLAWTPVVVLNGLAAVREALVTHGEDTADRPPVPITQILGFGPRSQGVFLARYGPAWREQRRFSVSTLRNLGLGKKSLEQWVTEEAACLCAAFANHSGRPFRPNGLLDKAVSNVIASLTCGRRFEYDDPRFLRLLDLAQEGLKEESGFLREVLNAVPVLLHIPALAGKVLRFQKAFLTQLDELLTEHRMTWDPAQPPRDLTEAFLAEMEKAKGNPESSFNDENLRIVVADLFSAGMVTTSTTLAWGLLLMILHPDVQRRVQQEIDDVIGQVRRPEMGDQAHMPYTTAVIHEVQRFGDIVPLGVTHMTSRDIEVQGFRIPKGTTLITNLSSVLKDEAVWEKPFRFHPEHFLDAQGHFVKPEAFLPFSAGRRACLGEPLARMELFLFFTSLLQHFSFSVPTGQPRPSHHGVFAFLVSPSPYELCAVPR
T1 sequence (Q06187 whole entry): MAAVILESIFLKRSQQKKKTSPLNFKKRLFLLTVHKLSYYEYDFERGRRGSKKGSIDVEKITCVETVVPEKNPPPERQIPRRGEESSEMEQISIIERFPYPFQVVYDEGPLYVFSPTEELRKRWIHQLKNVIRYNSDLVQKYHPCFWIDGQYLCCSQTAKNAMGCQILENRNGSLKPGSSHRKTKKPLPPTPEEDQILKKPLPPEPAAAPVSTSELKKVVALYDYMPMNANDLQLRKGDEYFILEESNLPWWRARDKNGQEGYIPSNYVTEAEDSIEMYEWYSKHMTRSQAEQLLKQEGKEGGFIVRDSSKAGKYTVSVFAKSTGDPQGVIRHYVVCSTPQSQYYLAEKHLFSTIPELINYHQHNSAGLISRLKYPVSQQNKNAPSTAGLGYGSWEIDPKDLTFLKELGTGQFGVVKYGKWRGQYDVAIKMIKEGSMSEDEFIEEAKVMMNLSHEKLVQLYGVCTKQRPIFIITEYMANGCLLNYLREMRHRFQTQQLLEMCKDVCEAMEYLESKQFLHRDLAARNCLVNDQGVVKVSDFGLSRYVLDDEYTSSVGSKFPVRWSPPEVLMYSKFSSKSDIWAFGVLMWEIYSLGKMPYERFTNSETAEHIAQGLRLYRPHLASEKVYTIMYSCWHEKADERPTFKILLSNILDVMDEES
T5 sequence (P33261 whole entry): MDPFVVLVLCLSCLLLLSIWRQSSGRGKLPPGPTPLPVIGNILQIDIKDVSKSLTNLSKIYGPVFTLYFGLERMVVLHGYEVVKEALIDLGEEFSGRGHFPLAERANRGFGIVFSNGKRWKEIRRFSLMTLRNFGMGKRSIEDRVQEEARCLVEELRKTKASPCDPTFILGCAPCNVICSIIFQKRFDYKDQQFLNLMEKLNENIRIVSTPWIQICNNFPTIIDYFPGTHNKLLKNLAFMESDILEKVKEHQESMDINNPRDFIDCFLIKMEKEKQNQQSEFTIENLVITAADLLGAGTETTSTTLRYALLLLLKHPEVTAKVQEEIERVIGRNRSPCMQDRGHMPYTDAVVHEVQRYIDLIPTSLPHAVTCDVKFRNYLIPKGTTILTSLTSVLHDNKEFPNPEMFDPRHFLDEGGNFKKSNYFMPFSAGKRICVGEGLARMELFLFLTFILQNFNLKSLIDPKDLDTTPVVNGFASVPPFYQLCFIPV
T4 sequence (P11712 whole entry): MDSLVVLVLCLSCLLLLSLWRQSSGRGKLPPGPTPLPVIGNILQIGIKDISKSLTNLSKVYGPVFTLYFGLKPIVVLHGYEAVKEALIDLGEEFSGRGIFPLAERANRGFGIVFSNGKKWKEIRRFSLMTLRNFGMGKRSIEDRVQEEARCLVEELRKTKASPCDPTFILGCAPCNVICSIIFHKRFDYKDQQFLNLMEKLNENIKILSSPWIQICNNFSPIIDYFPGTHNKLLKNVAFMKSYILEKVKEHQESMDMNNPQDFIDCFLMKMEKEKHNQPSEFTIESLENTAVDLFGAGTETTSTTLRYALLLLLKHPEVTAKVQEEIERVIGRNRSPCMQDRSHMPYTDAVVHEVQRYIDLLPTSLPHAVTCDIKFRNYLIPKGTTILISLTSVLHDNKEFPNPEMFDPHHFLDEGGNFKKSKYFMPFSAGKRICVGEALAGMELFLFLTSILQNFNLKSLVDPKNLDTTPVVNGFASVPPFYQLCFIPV
T7 sequence (P08684 whole entry): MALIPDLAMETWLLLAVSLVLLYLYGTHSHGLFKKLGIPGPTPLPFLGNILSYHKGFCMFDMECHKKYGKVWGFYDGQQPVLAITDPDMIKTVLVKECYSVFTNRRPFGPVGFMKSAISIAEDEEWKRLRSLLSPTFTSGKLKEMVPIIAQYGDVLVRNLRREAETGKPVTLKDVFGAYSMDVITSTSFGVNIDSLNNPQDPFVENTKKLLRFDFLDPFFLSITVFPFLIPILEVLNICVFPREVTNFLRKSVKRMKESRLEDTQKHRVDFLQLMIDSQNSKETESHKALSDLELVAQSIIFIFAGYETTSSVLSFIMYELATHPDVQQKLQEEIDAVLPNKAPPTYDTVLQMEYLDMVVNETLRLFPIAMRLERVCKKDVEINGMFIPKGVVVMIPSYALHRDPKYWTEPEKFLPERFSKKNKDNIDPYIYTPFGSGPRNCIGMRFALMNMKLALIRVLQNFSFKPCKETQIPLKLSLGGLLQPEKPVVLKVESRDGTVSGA

Take `C=CC(=O)N1CC2CC(n3nc(-c4ccc5nc(NC(C)=O)sc5c4)c4c(N)ncnc43)CC2C1` (centres unmarked) [Compound 9, N-(6-(1-(2-acryloyloctahydrocyclopenta[c]pyrrol-5-yl)-4-amino-1H-pyrazolo [3,4-d]pyrimidin-3-yl)benzo[d]thiazol-2-yl)acetamide]: the IC50 in series [1] was determined as 28 nM. Also, the inhibition at 10 μM was under 50% in series [2]; over 50% in series [3]; over 50% in series [4]; under 50% in series [5]; under 50% in series [6]; over 50% in series [7].

For the compound `CN(C)C/C=C/C(=O)N1CC2CC(n3nc(-c4ccc(-c5nnc(-c6ccccn6)o5)cc4)c4c(N)ncnc43)CC2C1` (centres unmarked) [Compound 57, (E)-1-(5-(4-amino-3-(4-(5-(pyridin-2-yl)-1,3,4-oxadiazol-2-yl)phenyl)-1H-pyrazolo[3,4-d]pyrimidin-1-yl)hexahydrocyclopenta[c]pyrrol-2(1H)-yl)-4-(dimethylamino)but-2-en-1-one], the IC50 in series [1] stood at 100 nM. The inhibition at 10 μM in series [2] is under 50%; in series [3], over 50%; in series [4], over 50%; in series [5], under 50%; in series [6], under 50%; in series [7], over 50%.

Take `C=CC(=O)N1CC2CC(n3nc(-c4ccc5c(c4)OC(F)(F)O5)c4c(N)ncnc43)CC2C1` (centres unmarked) [Compound 36, 1-(5-(4-amino-3-(2,2-difluorobenzo[d] [1,3]dioxol-5-yl)-1H-pyrazolo [3,4-d]pyrimidin-1-yl)hexahydrocyclopenta[c]pyrrol-2(1H)-yl)prop-2-en-1-one]: the IC50 in series [1] was found to be 1.1 nM. The inhibition at 10 μM in series [2], in series [3], in series [4], in series [5], in series [6] and in series [7] was under 50% throughout.

As to `C=CC(=O)N1CC2CC(n3nc(-c4ccc(C(=O)Nc5nc6ccccc6s5)cc4)c4c(N)ncnc43)CC2C1` (centres unmarked) [Compound 34, 4-(1-(2-acryloyloctahydrocyclopenta[c]pyrrol-5-yl)-4-amino-1H-pyrazolo[3,4-d]pyrimidin-3-yl)-N-(benzo[d]thiazol-2-yl)benzamide], in series [1], the 50% inhibitory concentration (IC50) is 359 nM. Besides, the inhibition at 10 μM in series [2] was over 50%; in series [3] it was under 50%; in series [4], under 50%; in series [5], over 50%; in series [6] it was under 50%; in series [7] it was over 50%.

Consider `C=CC(=O)N1CC2CC(n3nc(-c4ccc5nc(OC)sc5c4)c4c(N)ncnc43)CC2C1` (centres unmarked) [Compound 10, 1-(5-(4-amino-3-(2-methoxybenzo[d]thiazol-6-yl)-1H-pyrazolo[3,4-d]pyrimidin-1-yl)hexahydrocyclopenta[c]pyrrol-2(1H)-yl)prop-2-en-1-one], for which, in series [1], the IC50 is 25 nM. The inhibition at 10 μM in series [2] is under 50%; in series [3], over 50%; in series [4], under 50%; in series [5], under 50%; in series [6], over 50%; in series [7], over 50%.

For `C=CC(=O)N1CC2CC(n3nc(-c4ccc(C(=O)Nc5cnccn5)cc4)c4c(N)ncnc43)CC2C1` (centres unmarked) [Compound 37, 4-(1-(2-acryloyloctahydrocyclopenta[c]pyrrol-5-yl)-4-amino-1H-pyrazolo[3,4-d]pyrimidin-3-yl)-N-(pyrazin-2-yl)benzamide], the IC50 in series [1] was 1 nM. Moreover, the inhibition at 10 μM in series [2], in series [3], in series [4], in series [5], in series [6] and in series [7] was under 50% in each case.

As for `C=CC(=O)N1CC2CC(n3nc(-c4ccc5c(c4)oc4ccccc45)c4c(N)ncnc43)CC2C1` (centres unmarked) [Compound 8, 1-(5-(4-amino-3-(dibenzo[b,d]furan-3-yl)-1H-pyrazolo[3,4-d]pyrimidin-1-yl)hexahydrocyclopenta[c]pyrrol-2(1H)-yl)prop-2-en-1-one], in series [1], the IC50 worked out at 4 nM. In addition, the inhibition at 10 μM in series [2] is under 50%; in series [3] it was under 50%; in series [4], under 50%; in series [5], over 50%; in series [6], under 50%; in series [7] it was under 50%.

As for `C=CC(=O)N1CC2CC(n3nc(-c4ccc5nc(Oc6ccccc6)sc5c4)c4c(N)ncnc43)CC2C1` (centres unmarked) [Compound 20, 1-(5-(4-amino-3-(2-phenoxybenzo[d]thiazol-6-yl)-1H-pyrazolo [3,4-d]pyrimidin-1-yl)hexahydrocyclopenta[c]pyrrol-2(1H)-yl)prop-2-en-1-one], in series [1], the IC50 is 223 nM. Also, the inhibition at 10 μM in series [2] was under 50%; in series [3] it was over 50%; in series [4] it was over 50%; in series [5] it was under 50%; in series [6], under 50%; in series [7], over 50%.

As to `C=CC(=O)N1CC2CC(n3nc(-c4ccc5nc(-c6ccccc6)oc5c4)c4c(N)ncnc43)CC2C1` (centres unmarked) [Compound 19, 1-(5-(4-amino-3-(2-phenylbenzo[d]oxazol-6-yl)-1H-pyrazolo[3,4-d]pyrimidin-1-yl)hexahydrocyclopenta[c]pyrrol-2(1H)-yl)prop-2-en-1-one], the IC50 in series [1] amounted to 4 nM. The inhibition at 10 μM in series [2], in series [3], in series [4], in series [5], in series [6] and in series [7] was under 50% each time.

In the case of `CN(C)C/C=C/C(=O)N1CC2CC(n3nc(-c4ccc(Oc5ccccn5)cc4)c4c(N)ncnc43)CC2C1` (centres unmarked) [Compound 47, (E)-1-(5-(4-amino-3-(4-(pyridin-2-yloxy)phenyl)-1H-pyrazolo[3,4-d]pyrimidin-1-yl)hexahydrocyclopenta[c]pyrrol-2(1H)-yl)-4-(dimethylamino)but-2-en-1-one], the IC50 in series [1] was found to be 3 nM. Moreover, the inhibition at 10 μM in series [2], in series [3], in series [4], in series [5], in series [6] and in series [7] was under 50% in each case.

Turning to `CN(C)C/C=C/C(=O)N1CC2CC(n3nc(-c4ccc(C(=O)Nc5cc(C(F)(F)F)ccn5)cc4)c4c(N)ncnc43)CC2C1` (centres unmarked) [Compound 51, (E)-4-(4-amino-1-(2-(4-(dimethylamino)but-2-enoyl)octahydrocyclopenta [c]pyrrol-5-yl)-1H-pyrazolo[3,4-d]pyrimidin-3-yl)-N-(4-(trifluoromethyl)pyridine-2-yl)benzamide], the 50% inhibitory concentration (IC50) in series [1] is 100 nM. Further, the inhibition at 10 μM in series [2] is under 50%; in series [3] it was over 50%; in series [4] it was over 50%; in series [5], under 50%; in series [6], under 50%; in series [7], over 50%.
